Assay results as given in patent US6541425B1, “Retarding formulations of active substances used for plant protection” (priority 1998, dated 2003).
In brackets after ≈: the same amount, converted by molar mass.

Columns and labels:
[1] = Solubility in water of the active ingredients; type: physicochemical; details: for solubility: water

Molecule	solubility [1]	melting point	Solubility in water [1]
CCC(C)OC(=N\OC)/C(C)=N/OCc1ccccc1/C(=N\OC)C(=O)NC (centres unmarked) [Compound 2, N-methyl-2-[2-(2-sec-butoxy-2-(Z)-methoxyimino-1-methyl-(E)-ethylideneaminooxymethyl)phenyl]-2-(E)-methoxyiminoacetamide]	1190 µg/mL (≈ 3.03 mM)	48 to 50 °C	
CNC(=O)/C(=N/OC)c1ccccc1CO/N=C(C)/C(=N/OC)OC(C)C [Compound 1, N-methyl-2-[2-(2-isopropoxy-2-(Z)-methoxyimino-1-methyl-(E)-ethylideneaminooxymethyl)phenyl]-2-(E)-methoxyiminoacetamide]	1340 µg/mL (≈ 3.54 mM)	57 °C	
CNC(=O)/C(=N/OC)c1ccccc1CO/N=C(C)/C(=N/OC)C(/C)=N/OC [Compound 4, N-methylphenyl-2-((3,4-[E]-bis(methoximino), 2-[E]-oximinopentyl)methyl)-alpha-[E]-methoximinoacetamide]			450 µg/mL (≈ 1.15 mM)
N-methylphenyl-2-((3-[E]-methoxyimino, 5-methyl, 2-[E]-oximino-hex-4-en-yl)methyl)-alpha-[E]-methoximinoacetamide [Compound 5]			58 µg/mL
CNC(=O)/C(=N/OC)c1ccccc1CO/N=C(C)/C(=N/OC)OCC(C)C [Compound 3, N-methyl-2-[2-(2-isobutoxy-2-(Z)-methoxyimino-1-methyl-(E)-ethylideneaminooxymethyl)phenyl]-2-(E)-methoxyiminoacetamide]	500 µg/mL (≈ 1.27 mM)	68 °C	
